Test results reported in patent US20220218679A1, “NOVEL COMPOUNDS AND PHARMACEUTICAL COMPOSITIONS THEREOF FOR THE TREATMENT OF INFLAMMATORY DISORDERS” (Galapagos NV, priority 2019, published 2022).
Where two headings read alike, the source gives them in different places.

Tested on: THP-1-Lucia NFκB cells
Assay: THP1-Lucia NFκB reporter assay (LPS, IL-1β, TNFα triggering)
Assay type: cell-based
Settings: for EC50: 24 h incubation
Excerpt: This assay was used to evaluate the IRAK4 selectivity and potency of the compounds of the invention upon IRAK4 dependent (LPS and IL-1β) and independent triggering (TNFα), in a THP1-Lucia NFκB reporter assay.
THP-1-Lucia NFκB cells (Invivogen—5, rue Jean Rodier 31400 Toulouse France—cat #thp1-nfkb) were cultivated as recommended by the supplier using split cycles each cycle comprising a succession of thawing/expansion/seeding. The data reported were generated using cells having between 3 to 9 cycles. On the day of the experiment THP-1-Lucia NFκB cells were counted and seeded at a density of 1,000,000 cells/mL in culture medium (RPMI 1640 (Gibco, Cat #52400-025)+10% FBS (Sigma, Cat #F7524-500ML)+1% P/S (Gibco, Cat #15140-122)) by pipetting 54 μL/well in a 384 well plate. Thereafter, 6 μL of a 10× trigger solution was added to all wells, at final concentrations of 2.5, 10 and 3 ng/mL for respectively LPS, TNFα and IL-1β, except for ‘no trigger wells’ where 6 μL culture medium only was added.
After trigger addition, compounds were added with a digital compound dispenser, in a 8-points concentration range, using 3-fold dilution steps and normalizing the final DMSO concentration to 0.2% DMSO in all wells.
After 24 h incubation at 37° C., 5% CO2, 40 μL of supernatant was collected per well and transferred to a new 384 well plate that was then stored at −20° C. until further use.
For the readout, supernatant samples were thawed on ice and 5 μL sample was transferred from each well to a new 384-well plate. 20 μL of Quanti-Luc solution (Quanti-Luc powder (Invivogen, Cat #rep-qlc1) dissolved in 25 mL sterile water as indicated by the manufacturer) was added to each well after which luminescence was immediately measured on an Envision instrument.
To measure the inhibition of LPS/TNFα/IL-1β-induced NFκB-reporter activity, percentage inhibition (PIN) values were calculated for all concentrations tested, compared to controls. […]

EC50 (IL-1β trigger 3 ng/mL, read-out: IL-1β driven NFκB-reporter activity, average pEC50 (converted)): 0.1 µM
EC50 (LPS trigger 2.5 ng/mL, read-out: LPS driven NFκB-reporter activity, average pEC50 (converted)): 0.1 µM
SMILES: COc1cn2nc(CCC(C)(C)O)cc2cc1NC(=O)c1cccn(C2CC2)c1=O [Compound 1, 1-cyclopropyl-N-[2-(3-hydroxy-3-methylbutyl)-6-methoxypyrazolo[1,5-a]pyridin-5-yl]-2-oxopyridine-3-carboxamide]
TNFα mediated NFκB-reporter activity (TNFα trigger 10 ng/mL, 24 h incubation (IRAK4 independent)): no activity was observed
